Laboratory results taken from a melting point compilation (Tetko et al.; mined from patent text by program, amines drawn as free bases though some values may be those of a salt).

Compared with `CS(=O)(=O)c1ccc(-c2cnc(N(Cc3ccc(C(F)(F)P(=O)(O)O)c(Cl)c3)c3ccc(Cl)c(Cl)c3)o2)cc1`, `CCOC(=O)N1C(=O)N(C(=O)OCc2ccccc2)C2(C1=O)C(=O)N(Cc1ccc(Cl)c(Cl)c1)c1ccccc12` (centres undefined) is lower in melting point: 141 to 143 °C for the first, 128 to 131 °C for the second.

First: COc1ccc(-c2nc3cc(Cl)cc(C#CCN(OC(=O)OC(C)(C)C)C(=O)OC(C)(C)C)c3o2)cc1OC1CCCC1
Second: COc1ccc(C2=NN(C3CCN(C(=O)CCl)CC3)C(=O)[C@@H]3CC=CC[C@H]23)cc1OC
The melting point of the first is higher: 144 to 146 °C for the first, 104 to 106 °C for the second.

First: CN1C(=O)[C@@H](NC(=O)C2CCCCC2)N=C(c2ccccc2)c2ccccc21
Second: O=C1OC(c2ccccc2)CCN1Cc1ccccc1NS(=O)(=O)C(F)(F)F (centres undefined)
The melting point of the first is higher: 212 to 214 °C for the first, 152 °C for the second.

First: CC(=O)c1cn(Cc2ccc(F)cc2)c(=O)n(Cc2ccc(F)cc2)c1=O
Second: Fc1ccc(-c2ccc3nnn(Cc4ccc5ncccc5c4)c3n2)cc1
The melting point of the first is lower: 134 to 135 °C for the first, 153 to 156 °C for the second.

First: COc1ccc2c(c1)cc(-c1cc3cccnc3[nH]1)n2C
Second: COc1cc(OC)c2c(c1)c(-c1cc3cccnc3[nH]1)cn2C
The melting point of the first is higher: 234 to 235 °C for the first, 220 °C for the second.

First: CC(C)C[C@H](N)C(=O)NCCNC(=O)OCc1ccccc1
Second: CN(NC(=O)OCc1ccccc1)C(=O)NCC(F)F
The melting point of the first is higher: 148 to 149 °C for the first, 79 to 82 °C for the second.

Compared with `CC(C)(CO)NS(=O)(=O)c1ccc(Cl)s1`, `CCOCCc1nc(NS(=O)(=O)c2cccc(Cl)c2C)sc1CN(C)C` is higher in melting point: 112 °C for the first, 152 to 153 °C for the second.

First: CCC(=O)c1ccc2c(c1)OCC(=O)N2
Second: O=C1COc2cc3[nH]c(C(=O)O)cc3cc2N1
The melting point of the first is lower: 174 to 176 °C for the first, 231 to 237 °C for the second.

First: CCCc1nc2ncnn2c(N)c1CCc1ccccc1
Second: CC(=O)Nc1nc(-c2ccccc2)c(CCOC(C)=O)c2ncnn12
The melting point of the first is higher: 190 to 191 °C for the first, 79 to 80 °C for the second.

Compared with `CON=C(c1ccccc1OCc1ccc(Cl)cc1)n1ccnc1`, `Cc1ccc(N2CN(Cc3ccccc3)C3=NN=CC3=C2N)cc1` is higher in melting point: 92.5 to 93.5 °C for the first, 195 to 196 °C for the second.

First: CCCCOc1cc2c(Nc3cc(OC)c(Cl)cc3Cl)c(C#N)cnc2cc1OCCOC
Second: COc1cc(Nc2c(C#N)cnc3cc(NCCCC4CCN(C)CC4)c(OC)cc23)c(Cl)cc1Cl
The melting point of the first is higher: 166 to 167 °C for the first, 122 to 124 °C for the second.

First: CCN1C(=O)C(=O)N(c2c(C)cccc2C)C1=S
Second: CC(C)N1C(=O)c2cnc(Cl)cc2C1=O
The melting point of the first is higher: 103 to 105 °C for the first, 94 to 96 °C for the second.

First: CC12CCC(=O)C=C1CC(O)C1C2CCC2(C)C(O)CCC12 (centres undefined)
Second: CCOC(=O)C1=NN(c2ccc(Cl)cc2)C2(N3CCCC3)CCCC12 (centres undefined)
The melting point of the first is higher: 191 to 193 °C for the first, 95 to 96 °C for the second.

First: CC(C)(Cc1ccc(S(=O)C(F)(F)F)cc1)C(O)c1cncnc1 (centres undefined)
Second: FC(F)C(F)(F)Sc1nc(-c2ccc(Cl)cc2)c(-c2cccs2)[nH]1
The melting point of the first is lower: 122 °C for the first, 162 to 163 °C for the second.

First: COc1ccc2cc(C(C)=CC(C)=O)cc(F)c2c1
Second: COc1cc(Cl)c2c(-c3ccccc3F)noc2c1
The melting point of the first is higher: 126 to 127 °C for the first, 113 to 115 °C for the second.

First: CCN(c1ccc(N2CCN(c3ccc(OC)cc3)CC2)cc1)c1nnc(C)s1
Second: CNC(=O)c1ccc(N2CCN(Cc3cc4c(c(C5CC5)c3)OC(C)C(=O)N4)CC2)cc1 (centres undefined)
The melting point of the first is lower: 187 °C for the first, 256 to 259 °C for the second.

Compared with `COC(=O)c1sccc1NC(C)=O`, `CCNC(=O)N=C(NC(=O)Nc1ccccc1C)SC` is higher in melting point: 93 to 95 °C for the first, 152 to 153 °C for the second.

First: Cc1c(Cl)cccc1S(=O)(=O)Nc1ccc2c(c1)nc(C)n2-c1ccccc1
Second: O=C(Nc1nc(-c2ccccc2)c(-c2nc3ccccc3c(=O)n2-c2ccc(Cl)cc2)s1)c1ccccc1
The melting point of the first is lower: 254 to 256 °C for the first, greater than 275 °C for the second.

Compared with `O=C(CCCCN1CCCCC1)c1ccc2c(c1)Sc1cc(C(=O)CCCCN3CCCCC3)ccc1O2`, `CN(C)c1ccc2c(c1)N(CCCN1CCC(C(=O)O)CC1)c1ccccc1CC2` is higher in melting point: 128 to 130 °C for the first, 198 to 202 °C for the second.

Compared with `COC(=O)CCCC(C)(C)c1ccc(C(=O)c2ccccc2C(=O)O)cc1`, `O=C(c1ccccc1)c1cc(O)ccc1O` is higher in melting point: 138 to 140 °C for the first, 160 to 162 °C for the second.

Compared with `CCn1c(N)c(C(=O)NC)c(=O)c2ccc(-c3ccc(NS(C)(=O)=O)cc3)nc21`, `CCNc1cc(-c2nc(=O)c3ccccc3s2)ccc1C(=O)OC` is lower in melting point: greater than 300 °C for the first, 171 to 178 °C for the second.

First: C/C(O)=C(\C#N)C(=O)Sc1ccc(Cl)cc1
Second: CCOC(=O)c1cnc2ccc(SC)cc2c1O
The melting point of the first is lower: 91 to 94 °C for the first, greater than 260 °C for the second.

First: CC(C)C[C@H](NC(C)C)C(=O)O
Second: COc1cc(OC)cc(C(NCC(=O)Nc2c(C(C)C)cccc2C(C)C)c2ccccc2)c1 (centres undefined)
The melting point of the first is higher: 293 to 296 °C for the first, 111 to 112 °C for the second.

First: CN(CCOc1ccc(CC2SC(=O)NC2=O)cc1)C(=O)Nc1ccccc1 (centres undefined)
Second: O=C1O[C@@H](c2ccccc2)N(C(=O)OCc2ccccc2)[C@H]1Cc1ccccc1
The melting point of the first is lower: 88 to 90 °C for the first, 120 to 122 °C for the second.

Compared with `CCCc1nnc(N2N=C(c3ccc([N+](=O)[O-])c(C)c3)c3cc4c(cc3C[C@H]2C)OCO4)s1`, `CCN(CCCc1coc2c(OC)cccc12)C1COc2c(F)ccc(C(N)=O)c2C1` (centres undefined) is lower in melting point: 143 to 145 °C for the first, 125 to 128 °C for the second.

Compared with `CCC(O)c1cc(-c2ccccc2)no1` (centres undefined), `Cc1cc(-c2cc(O)c(SCc3ccccc3)c(=O)o2)cc(C)c1O` is higher in melting point: 101 to 102 °C for the first, 174 to 176 °C for the second.

First: CCCCCCCCCCNC(=O)c1ccccc1[N+](=O)[O-]
Second: CCCCCCCCCCCCC(C)CNc1cc(C)c([N+](=O)[O-])cc1C(=O)O (centres undefined)
The melting point of the first is lower: 55 to 57 °C for the first, 98 to 100 °C for the second.

First: CC1NC(=O)NN=C1c1ccccn1 (centres undefined)
Second: O=c1[nH]nc2ccc(S)nn12
The melting point of the first is lower: 212 to 214 °C for the first, greater than 300 °C for the second.

First: Oc1ccc(-c2nc3cc(O)c(Cl)cc3o2)cc1
Second: Cc1oc2ccccc2c1C(=O)NCc1ccc2cc(O)ccc2c1
The melting point of the first is higher: 260 to 262 °C for the first, 195 to 198 °C for the second.

Compared with `COc1cc(C=CC=NO)ccc1OC(C)=O`, `CCc1cc(OC)c(C=C(C)[N+](=O)[O-])cc1OC` is lower in melting point: 72 to 74 °C for the first, 63 to 64 °C for the second.

Compared with `COc1cc(N(C)c2nccc(-c3ccncc3)n2)cc(OC)c1OC`, `COC(=O)Nc1nc2ccc(Oc3ccncc3)cc2[nH]1` is higher in melting point: 139 °C for the first, 220 to 224 °C for the second.

First: O=[N+]([O-])C=C1CCCN1C1=CC(CF)(CF)Oc2ccc(C(F)(F)C(F)(F)F)cc21
Second: O=C(Nc1ccc(-n2nc(C(F)(F)F)cc2C(F)(F)F)cc1)c1ccc2c(c1)OCO2
The melting point of the first is lower: 195 to 197 °C for the first, 222 to 224 °C for the second.

First: O=C(OC(c1ccccc1)c1ccccc1)C1=CSC2C(=Cc3cn4c(n3)SCC4)C(=O)N12 (centres undefined)
Second: Cc1ccc(F)c2c1N(C(c1ccccc1)c1ccccc1)C(=O)C21COc2cc3c(cc21)CCO3 (centres undefined)
The melting point of the first is higher: 160 to 161 °C for the first, 81 to 82 °C for the second.

Compared with `C#Cc1ccc2c(c1)C=C(C(=O)O)C(C(F)(F)F)N2` (centres undefined), `CCNc1cc(Cl)c(C(F)(F)F)cc1[N+](=O)[O-]` is lower in melting point: 259 to 268 °C for the first, 92.5 to 94 °C for the second.

First: CNC(=O)C1=CC(C)(COC)Oc2ccc([N+](=O)[O-])cc21 (centres undefined)
Second: COc1ccccc1-c1nc(C)c(C(N)=O)s1
The melting point of the first is lower: 128 to 130 °C for the first, 191 to 192 °C for the second.

First: CCCCOCCOc1ccc(-c2ccc3c(c2)C=C(C(=O)Nc2ccc4c(c2)nc(S(=O)Cc2cncn2CCC)n4C)CCN3CC(C)C)cc1 (centres undefined)
Second: CCN(CC)Cc1ccccc1Oc1ccc(-c2cn(C3CCOC3)c3ncnc(N)c23)cc1 (centres undefined)
The melting point of the first is higher: 150 to 151 °C for the first, 107 to 110 °C for the second.

First: CCCCCCCCOC(=O)C=Cc1ccc(N(C)C)cc1
Second: CCOC(=O)CNC(=O)COc1ccc(C=O)cc1
The melting point of the first is lower: 48 to 49.5 °C for the first, 94.5 to 95.5 °C for the second.

Going from `Cc1c(F)cccc1Cc1c(-c2ccccc2)c2ccccn2c1C(=O)N1CCN(C(=O)OC(C)(C)C)CC1` to `CCOC(=O)c1c(N2CCN(C(=O)c3cccs3)CC2)c2cc(F)cnc2n(CC(=O)c2ccccc2)c1=O`, the melting point falls from 263 °C to 262 °C.

Compared with `Cc1ccc2ncc(CSc3ccc([N+](=O)[O-])cc3)n2c1`, `Cc1ccc(SN(CC(=O)OCc2ccccc2)CP(=O)(Oc2ccccc2)Oc2ccccc2)cc1` is lower in melting point: 127 to 128 °C for the first, 108 to 111 °C for the second.

First: CSCc1cc(O)nc(CSC)n1
Second: CSC(Oc1cc(Cl)c2ncc(Br)cc2c1)C(=O)NC(C)(C)C (centres undefined)
The melting point of the first is lower: 101 to 102 °C for the first, 160 to 161 °C for the second.

Compared with `CC(=O)Oc1c(C)c(C)c2c(c1C)CCC(C)(O)O2` (centres undefined), `C/C(=C\c1ccc(O)cc1)c1ccc2c(c1)OCC(C)(C)CO2` is lower in melting point: 127 to 132 °C for the first, 70 to 71 °C for the second.

First: O=C(NC(Cc1ccccc1)C(=O)O)OCc1ccc(CCCc2ccccc2)cc1 (centres undefined)
Second: N#C[C@@H](Cc1ccccc1)Oc1c(Br)cc(-c2c3ccccc3c(Br)c3sc4ccccc4c23)cc1Br
The melting point of the first is lower: 135 °C for the first, 160 to 165 °C for the second.

Compared with `N#Cc1ccc(C(O)C23CCCN2C(=O)N(c2cc(Cl)cc(Cl)c2)C3=O)cc1` (centres undefined), `COc1cc2c(c(Cl)c1Cl)C(=O)C(c1ccccc1)(c1ccccc1)C2` is lower in melting point: 184 °C for the first, 172 to 174 °C for the second.

First: CCOC(=O)c1cn(C2CC2)c2nc(N3CCN(C(=O)OCC)CC3)c(F)cc2c1=O
Second: C=Cc1c(F)c(F)c(F)c2c1c(=O)c(C(=O)OCC)cn2C1CC1
The melting point of the first is lower: 184 to 186 °C for the first, 188 to 189 °C for the second.

First: CC(C)Cc1nn(C)c(=O)c2cc(Cc3cccc4ccccc34)oc12
Second: Cn1cc(C2=C(c3c4n(c5ccccc35)CCC(CCN)C4)C(=O)NC2=O)c2ccccc21 (centres undefined)
The melting point of the first is lower: 73 to 75 °C for the first, 160 to 165 °C for the second.

Compared with `C=C(CC(N)=O)C(=O)O`, `CCCN(CCC(N)=O)CCC(N)=O` is lower in melting point: 153 to 154 °C for the first, 101 to 102 °C for the second.

Compared with `Cc1ccc(NC(=O)Nc2cc(C(C)(C)C)sc2CNC(=O)CN)cc1`, `CC(=O)C1=C(O)C(=C(C)Nc2ccccc2Cl)C(=O)OC1=O` is higher in melting point: 93 to 96 °C for the first, 143 to 145 °C for the second.

First: Cc1cc(Cl)cc(COc2cccc(OCc3ccc4cc(F)ccc4n3)c2)c1OCC(=O)O
Second: Cc1nc2cc3c(cc2s1)C1(CO3)C(=O)N(CC2CCOCC2)c2ccccc21 (centres undefined)
The melting point of the first is lower: 140 to 141 °C for the first, 186 to 187 °C for the second.

First: Cc1[nH]c(=O)[nH]c1C(=O)c1ccc(N2CCOCC2)cc1
Second: CCCCCCCCS(=O)Cc1c(C)c(O)c(C)c(CS(=O)CCCCCCCC)c1C (centres undefined)
The melting point of the first is higher: 283 to 286 °C for the first, 175 °C for the second.

Work on `O=S(=O)(O)CC(O)CNCC(O)O` (centres undefined) yielded a melting point of 189 to 190 °C.
